Entries after “also recorded” stand apart in the source; their conditions may differ.
B1: Glycan 4: Ceruloplasmine mixture of bi and tri- and tetra-antenary N-glycans (protein, UniProt P00450 20-1065, looked up)
Ceruloplasmin: KEKHYYIGIIETTWDYASDHGEKKLISVDTEHSNIYLQNGPDRIGRLYKKALYLQYTDETFRTTIEKPVWLGFLGPIIKAETGDKVYVHLKNLASRPYTFHSHGITYYKEHEGAIYPDNTTDFQRADDKVYPGEQYTYMLLATEEQSPGEGDGNCVTRIYHSHIDAPKDIASGLIGPLIICKKDSLDKEKEKHIDREFVVMFSVVDENFSWYLEDNIKTYCSEPEKVDKDNEDFQESNRMYSVNGYTFGSLPGLSMCAEDRVKWYLFGMGNEVDVHAAFFHGQALTNKNYRIDTINLFPATLFDAYMVAQNPGEWMLSCQNLNHLKAGLQAFFQVQECNKSSSKDNIRGKHVRHYYIAAEEIIWNYAPSGIDIFTKENLTAPGSDSAVFFEQGTTRIGGSYKKLVYREYTDASFTNRKERGPEEEHLGILGPVIWAEVGDTIRVTFHNKGAYPLSIEPIGVRFNKNNEGTYYSPNYNPQSRSVPPSASHVAPTETFTYEWTVPKEVGPTNADPVCLAKMYYSAVEPTKDIFTGLIGPMKICKKGSLHANGRQKDVDKEFYLFPTVFDENESLLLEDNIRMFTTAPDQVDKEDEDFQESNKMHSMNGFMYGNQPGLTMCKGDSVVWYLFSAGNEADVHGIYFSGNTYLWRGERRDTANLFPQTSLTLHMWPDTEGTFNVECLTTDHYTGGMKQKYTVNQCRRQSEDSTFYLGERTYYIAAVEVEWDYSPQREWEKELHHLQEQNVSNAFLDKGEFYIGSKYKKVVYRQYTDSTFRVPVERKAEEEHLGILGPQLHADVGDKVKIIFKNMATRPYSIHAHGVQTESSTVTPTLPGETLTYVWKIPERSGAGTEDSACIPWAYYSTVDQVKDLYSGLIGPLIVCRRPYLKVFNPRRKLEFALLFLVFDENESWYLDDNIKTYSDHPEKVNKDDEEFIESNKMHAINGRMFGNLQGLTMHVGDEVNWYLMGMGNEIDLHTVHFHGHSFQYKHRGVYSSDVFDIFPGTYQTLEMFPRTPGIWLLHCHVTDHIHAGMETTYTVLQNEDTKSG
modifications: N-glycans

Tests used:
[1] = system: Human anti-HIV 2G12 monoclonal antibody; assay: 2G12 binding on glycan array; conditions: for binding of 2G12 antibody (in words): glycan array, 2G12 30 μg/mL pre-complexed with goat anti-human-IgG-FITC
Source text: Glycan array fabrication.
Glycan Binding Protein binding assay. […] Saliva samples were similarly handled.
Image acquisition and signal processing. […] Data were plotted using MS Excel software.

[2] = system: antibodies in serum of patients who received porcine fetal pancreas islet-like cell clusters; assay: Sera of xenotransplant recipients on glycan array; assay type: binding, Human; conditions: before and 1, 6, 12 months after transplantation
Description: In 1991-1994, several diabetic (I) patients received transplantation of porcine fetal pancreas islet-like cell clusters (ICC). See, Groth, C. G. et al. Transplantation of porcine fetal pancreas to diabetic patients, The Lancet 344: 1402-4 (1994). The inventor analyzed serum from three of these patients before transplant (t=0), 1 months after (t=1), 6 months after (t=2) and 12 months after (t=3) transplant.
(§1) Sera were diluted as needed with PBS containing 3% BSA, and placed on the glycan array slide in humidified chamber at room temperature for 90 min. The glycan array slide was then rinsed gently with PBS/0.05% Tween, incubated with biotinylated goat antibody against human IgG, IgM and IgA, rinsed in PBS/0.05% Tween, and incubated with streptavidin-Alexa488 fluorescent dye. Following rinses in PBS/0.05% Tween and H2O, glycan array slides were dried and scanned using the commercial DNA array scanner. […] Signal to background was typically greater 50:1 and no background subtractions were performed. Data were plotted using MS Excel software.

Concanavalin A (Con A) = Concanavalin A (Con A) (Canavalia ensiformis, UniProt P02866); conditions: printing times up to 5 hours
[3] = system: anti-carbohydrate antibodies in sera of metastatic breast cancer patients; assay: Sera of metastatic breast cancer patients on glycan array; assay type: binding, Human; conditions: sera 1:25; 9 MBC patients, 10 healthy
Description: Individual (not pooled) sera were collected from 9 patients who were diagnosed with metastatic breast cancer (MBC). Blood samples were collected before treatment, so that therapeutic intervention would not interfere with patient immune responses. One patient with breast cancer but with good prognosis (IDC, Stage 1) was also included in the study. As control, or “healthy” sera, sera from ten healthy individuals, 5 female and 5 male, with no known malignancies was collected.
as §1, with “1:25” for “as needed”

[4] = pKa of deprotected spacer; assay type: physicochemical

Molecule | binding of 2G12 antibody (in words) [1] | serum antibodies against glycan in metastatic breast cancer patients versus healthy individuals (in words) [3] | further results
Manα1-6(Manα1-3)Manα1-6(Manα1-2Manα1-3)Manβ1-4GlcNAcβ1-4GlcNAcβSp [Glycan 142] | did not support binding at all | – | –
Galβ1-4(Fucα1-3)GlcNAcβSp [Glycan 65] | – | – | serum antibodies against glycan in xenotransplant recipients (in words) [2]: do not have antibodies; also recorded: essentially no anti-LeX antibodies are detected
Manα1-3Manα1-6(Manα1-2Manα1-3)Manβ1-4GlcNAcβ1-4GlcNAcβSp [Glycan 140] | did not support binding at all | – | –
Manα1-2Manα1-3(Manα1-2Manα1-6)ManαSp [Glycan 136] | strong binding | – | variation in maximal binding of con A (Concanavalin A (Con A)): less than 10%; Rel. spec. (Relative binding activity) ([1]; binding of 2G12 to mannose containing glycans in the glycan array): +++ (+++ > 25,000)
Manα1-2Manα1-6(Manα1-3)Manα1-6(Manα1-2Manα1-3)Manβ1-4GlcNAcβ1-4GlcNAcβSp [Glycan 144] | strong preference for binding | – | –
Neu5Gc(2-6)GalNAc | – | bind | –
Manα1-2Manα1-2Manα1-3(Manα1-2Manα1-3(Manα1-2Manα1-6)Manα1-6)Manβ1-4GlcNAcβ1-4GlcNAcβSp [Glycan 145] | – | – | binding of 2G12 antibody (in words) ([1]; listed as Man9): relatively weakly bound; binding of 2G12 antibody (in words) ([1]; listed as Man-9-N-glycans): smaller level of binding
Fucose-alpha2-Gal-beta3-GalNAc-beta3-Gal-alpha-4-Gal-beta4-Glc [Globo-H] | – | bind and higher | –
Gal-beta3-GalNAc-beta4-[Neu5Ac-alpha3]-Gal-beta4-Glc-beta [GM1] | – | bind and higher | –
C=CCCONC [Compound 1033] | – | – | pKa1 [4]: 4.8
Neu5Acα2-6GalNAcα- | – | significantly higher levels | –
CC(=O)N[C@H]1[C@H](O[C@H]2[C@@H](O)[C@@H](CO)O[C@@H](O[C@H]3[C@H](O)[C@@H](O)C(O)O[C@@H]3CO)[C@@H]2O)O[C@H](CO)[C@@H](O)[C@@H]1O (stereo partly drawn) [LNT-2, GlcNAc-beta3-Gal-beta4-Glc-beta] | – | bind and higher | –
Manα1-6(Manα1-2Manα1-3)Manα1-6(Manα1-2Manα1-3)Manβ1-4GlcNAcβ1-4GlcNAcβSp [Glycan 143] | did not support binding at all | – | –
B1 | – | bind and significantly higher levels | –

Source: patent US20070281865A1, “MULTI-FUNCTIONAL SPACER FOR GLYCANS” (priority 2006, published 2007)
